Results on three compounds are retold here after US12534469B2 (CHILDREN'S HOSPITAL MEDICAL CENTER, priority 2020, dated 2026).

The target in one assay is T1, FLT3 D835Y (Homo sapiens, UniProt P36888, D835Y).
T1 construct: purchased DiscoverX (KINOMEscan); host or cells: E. coli (T7 phage) or HEK-293
T1 sequence (P36888 27-993 D835Y): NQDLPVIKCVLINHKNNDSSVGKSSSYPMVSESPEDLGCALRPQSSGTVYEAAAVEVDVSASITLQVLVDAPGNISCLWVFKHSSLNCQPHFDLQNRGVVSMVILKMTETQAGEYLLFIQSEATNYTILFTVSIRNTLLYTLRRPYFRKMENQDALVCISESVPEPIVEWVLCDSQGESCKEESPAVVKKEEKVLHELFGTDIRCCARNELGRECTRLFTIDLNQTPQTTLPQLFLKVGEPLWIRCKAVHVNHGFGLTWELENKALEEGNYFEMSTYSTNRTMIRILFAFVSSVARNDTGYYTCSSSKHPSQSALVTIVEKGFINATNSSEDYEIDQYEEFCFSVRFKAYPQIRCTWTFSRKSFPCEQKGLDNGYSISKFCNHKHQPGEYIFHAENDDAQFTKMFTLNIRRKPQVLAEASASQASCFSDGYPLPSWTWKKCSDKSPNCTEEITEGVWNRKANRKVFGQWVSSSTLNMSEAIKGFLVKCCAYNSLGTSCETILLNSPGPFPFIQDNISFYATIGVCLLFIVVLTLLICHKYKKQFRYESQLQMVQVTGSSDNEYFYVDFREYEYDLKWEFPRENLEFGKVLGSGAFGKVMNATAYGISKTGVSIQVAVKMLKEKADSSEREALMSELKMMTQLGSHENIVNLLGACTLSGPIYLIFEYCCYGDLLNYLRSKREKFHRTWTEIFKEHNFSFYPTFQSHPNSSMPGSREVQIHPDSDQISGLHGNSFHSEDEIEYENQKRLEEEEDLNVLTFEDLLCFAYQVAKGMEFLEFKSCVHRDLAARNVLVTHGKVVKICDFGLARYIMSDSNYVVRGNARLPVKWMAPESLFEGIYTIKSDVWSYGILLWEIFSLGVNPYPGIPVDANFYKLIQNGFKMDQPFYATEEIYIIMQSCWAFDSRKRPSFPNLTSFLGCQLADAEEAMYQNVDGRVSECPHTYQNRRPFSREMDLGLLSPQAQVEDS
Kind of assay: DiscoverX KINOMEscan competition binding assay, FLT3 D835Y. The text has this: (§1) Kinase binding data were obtained for various exemplary compounds prepared according to Examples 1-25 using the DiscoverX KINOMEscan® active site-directed competition binding site-directed assay protocol described below. […] As a result, the data report thermodynamic interaction affinities (Kd values), rather than IC50 values that are dependent on ATP concentrations. The assay uses a DNA-tagged version of the protein kinase, and an immobilized ligand bound to a solid support. Compounds that directly or indirectly prevent kinase binding to the immobilized ligand reduce the amount of kinase captured on the solid support, which is detected using an ultra-sensitive qPCR method. Affinity constants reported from the assay have been reported to be independent of the immobilized ligand used that is coupled to the solid support (See supplemental information in Fabian, M. A. et. al., (2005) Nat. Biotechnol. 23, 329-336; Wodicka, L. M. et. al., (2010) Chem. Biol. 17, 1241-1249.)
(§2) Kinase-tagged T7 phage strains were prepared in an E. coli host derived from the BL21 strain. E. coli were grown to log-phase and infected with T7 phage and incubated with shaking at 32° C. until lysis. The lysates were centrifuged and filtered to remove cell debris. The remaining kinases were produced in HEK-293 cells and subsequently tagged with DNA for qPCR detection. […] The liganded beads were blocked with excess biotin and washed with blocking buffer (SeaBlock (Pierce), 1% BSA, 0.05% Tween 20, 1 mM DTT) to remove unbound ligand and to reduce non-specific binding. […] Test compounds were prepared as 111× stocks in 100% DMSO. Kds were determined using an 11-point 3-fold compound dilution series with three DMSO control points. […] The compounds were then diluted directly into the assays such that the final concentration of DMSO was 0.9%. All reactions were performed in polypropylene 384-well plates. Each was a final volume of 0.02 mL. […] The kinase concentration in the eluates was measured by qPCR.
(§3) Binding constants (Kds) were calculated with a standard dose-response curve using the Hill equation. […]

For another assay, the target named is T2, FLT3 N841I (Homo sapiens, UniProt P36888, N841I).
T2 construct: purchased DiscoverX (KINOMEscan); host or cells: E. coli (T7 phage) or HEK-293
T2 sequence (P36888 27-993 N841I): T1 sequence (P36888 27-993 D835Y) with Y809D, N815I
The assay is described as follows: DiscoverX KINOMEscan competition binding assay, FLT3 N841I.
Text: as §1, §2, §3

Positions count from the first letter of the chain named.

Regarding `COc1cc2ncc(-c3cccc(N[C@H]4CNC[C@@H]4F)n3)n2nc1C1CC1` [Compound 96, 6-(6-cyclopropyl-7-methoxyimidazo[1,2-b]pyridazin-3-yl)-N-((3S,4S)-4-fluoropyrrolidin-3-yl)pyridin-2-amine], the Kd (commonly the free concentration of one partner at which half of the binding sites on the other are occupied at equilibrium, for simple one-to-one binding) stood at 0.46 nM on FLT3 D835Y and 0.91 nM at FLT3 N841I.
The corresponding values for `COc1cc2ncc(-c3cccc(N[C@@H]4CCNC4)n3)n2nc1C1CC1` [Compound 97, (R)-6-(6-cyclopropyl-7-methoxyimidazo[1,2-b]pyridazin-3-yl)-N-(pyrrolidin-3-yl)pyridin-2-amine] are 0.063 nM and 0.55 nM.
The corresponding values for `COc1cc2ncc(-c3cccc(N[C@H]4CNCC[C@@H]4F)n3)n2nc1C1CC1` [Compound 102, 6-(6-cyclopropyl-7-methoxyimidazo[1,2-b]pyridazin-3-yl)-N-((3S,4S)-4-fluoropiperidin-3-yl)pyridin-2-amine] are 0.16 nM and 0.36 nM.
